The text below walks through data of patent publication US12358904B2, “Inhibitors of TYK2” (Atomwise Inc., priority 2023, dated 2025).

One assay concerns the target T1, TYK2-JH2 (Homo sapiens, UniProt P29597).
T1 construct: TYK JH2 enzyme mix (ChemPartnec CP20210818A-BV); purchased ChemPartner CP20210818A-BV
As to the kind of experiment: TYK2-JH2 HTRF binding assay (ligand efficiency). Conditions: calculated from IC50 of the TYK-JH2 binding assay (Equation 1). The method, then:
The following example describes the TYK2-JH2 HTRF binding assay used to determine the ligand efficiency of the TYK2 inhibitors.
To calculate ligand efficiency, Equation 1 is applied:
[formula] in which IC50 comes from the binding assay used to determine compound potency.
TYK JH2 enzyme mix (ChemPartnec CP20210818A-BV), tracer (ChemPartnec CP-0029472-051) and mAb Anti-6HIS Tb cryptate Gold (Cisbio: Cat No. 61H12TLA) mix were prepared in assay buffer (10 mM MgCl2, 20 mM HEPES pH 7.5, 0.01% Triton X-100, 1 mM DTT). Compounds diluted in DMSO (Final Concentrations 0.1 to 0.000005 [μM]) and enzyme mix (0.5 nM Final Concentration) were added to 384 well plates, briefly centrifuged and incubated at room temperature for 10 minutes. After incubation, tracer mix (Tracer-35 nM final concentration); (Mab Anti-6HIS Tb cryptate Gold-0.5× final)) was added, briefly centrifuged then incubate at room temperature 60 minutes. After incubation, plates were read by Envision TR-FRET (Ex340/Em495/520) protocol (PerkinElmer-Envision 2104 multilabel plate reader).

The test system of the next assay is IL-12/pSTAT4. Kind of assay: IL-12 induced pSTAT4 assay in NK-92 cells. It is filed as cell-based. Particulars: Homo sapiens, NK92, IL-12 stimulation, read-out: Cellular potency (IL-12/pSTAT4). The method, then:
The following example describes the IL-12 induced pSTAT4 assay used to determine the cellular potency (IL-12/pSTAT4) of the TYK2 inhibitors.
NK-92 cells (human natural killer lymphoma cell line) were cultured in MEM α, nucleosides (Life Technologies, 22571020) 12.5% heat inactivated FBS (Dominique Dutscher, S1810), 12.5% heat inactivated Horse serum (Life Technologies, 26050088) and 1% Penicillin-Streptomycin (Life Technologies, 15140122), 5 ng/mL human IL-2 (R&D systems, 202-II/CF), 0.2 mM inositol (Sigma, PHR1351 lot LRAC4118), 0.1 mM β-mercaptoethanol (Life Technologies, 31350010), and 0.02 mM folic acid (Sigma, F8758).
NK-92 cells were starved overnight in starvation medium (Opti-MEM (ThermoFisher, 11058-021), 10% charcoal stripped FBS (ThermoFisher 12676-029), and 1% Penicillin (100U/ml)-Streptomycin (100 μg/ml) (ThermoFisher, ref 15140122)), then plated in a 96-well tissue culture plate (20K cells/well) prior to pre-incubation with test compounds (Final Concentration [nM] 1000 to 0.05) for 30 minutes at 37° C. Cells were stimulated with IL-12 (Final Concentration l0 ng/ml) for 30 minutes at 37° C., and terminated by addition of lysis buffer (MSD K150PAD-2). pSTAT4 (Tyr693) was detected using the Mesa Scale Discovery platform (MSD K150PAD-2), according to manufacturer's instruction. Briefly, cell lysates were added to pre-blocked plates and incubated for 1 hour at room temperature. Plates were washed and incubated with detection antibody for 1 hour at room temperature. Plates were washed and Read Buffer was added prior to measurement on the MSD (1300 MSD Quickplex SQ 120).

For a further assay, the system named is GM-CSF/pSTAT5. As to the kind of experiment: GM-CSF induced pSTAT5 assay in CellSensor irf1-bla TF-1 cells. It is filed as cell-based. Particulars: GM-CSF 1 ng/mL; for IC50: Homo sapiens, read-out: Cellular selectivity (GM-CSF induced pSTAT5). The method, then:
The CellSensor irf1-bla TF-1 cell line (LifeTechnologies, K1657) was cultured in RPMI 1640 Medium (Invitrogen 72400-047), 10% Fetal Bovine Serum (Invitrogen, 26400044), 1 mM Sodium pyruvate (Life Technologies, 11360039), 1% MEM NEAA (Life Technologies, 11140-035), 2 ng/ml of human recombinant GM-CSF (Fisher, PHC2015), 1% Penicillin/Streptomycin (Life Technologies, 15140-122) and 5 μg/ml of Blasticidin (ThermoFisher, A1113903).
The cell line was seeded in a T75 flask at 13×10^6 cells/50 mL in starvation medium (Opti-MEM™ I Reduced Serum Medium, no phenol red (Life Technologies, 11058-021), 1 mM Na pyruvate (Life Technologies, 11360039), 1% MEM NEAA (Life Technologies, 11140-035), and 1% Penicillin/Streptomycin (Life Technologies, 15140-122)) for 16 hours at 37° C. under 5% CO2 the day before the assay.
For the assay, CellSensor irf1-bla TF-1 cells were seeded at 30 000 cells/32 μL (starvation medium)/well in a 384-well plate.
Compounds were added on the cells in 4 μL (starvation medium)/well at 10× the final concentration. They were incubated for 30 minutes at 37° C.
Human recombinant carrier-free GM-CSF (ThermoFisher, ref PHC2015) was added to the wells in 4 μL (starvation medium)/well at 10×. The final concentration was 1 ng/mL. Control wells without GM-CSF treatment were added. Plates were incubated for 5 hours at 37° C.
6× LiveBlazer-FRET substrate (Invitrogen, K1085) was added to the wells at 8 μL/well. The substrate was prepared shortly before use by mixing 6 μL of solution A and 60 μL of solution B to 934 μL of solution C. Plates were incubated for 2.5 hours at room temperature in the dark. The plates were read on an Envision (Perkin Elmer) with an excitation at a wavelength of 409 nm and two wavelengths for the emission 520 nm and 450 nm. The ratio between the […] emission was used to calculate the IC50s.
The IC50 for the inhibition of pSTAT5 was calculated with the Xlfit software using the 4 Parameter Logistic Model or Sigmoidal Dose-Response Model (model 205).

Another assay relates to IL-6/pSTAT3. Kind of assay: IL-6 induced pSTAT3 assay in TF-1 cells. Conditions: Homo sapiens, read-out: Cellular selectivity (IL-6/pSTAT3). It is filed as cell-based. The method, then: The following example describes the IL-6 induced pSTAT3 assay used to determine the cellular selectivity (IL-6/pSTAT3) of the TYK2 inhibitors.
TF-1 (ATCC®, CRL-2003™) cells were cultured in RPMI 1640 Medium, with GlutaMAX™ Supplement, HEPES for Cell Culture (Life Technologies, 72400047), 10% Fetal Bovine Serum (Life Technologies, 26400044), 2 ng/mL human recombinant GM-CSF (Life Technologies, PHC2013), 1 mM Sodium pyruvate (Life Technologies, 11360039), 1% MEM NEAA (Life Technologies, 11140-035), 1% Penicillin/Streptomycin (Life Technologies, 15140-122).
TF-1 (70×10^6) cells were starved overnight in T01 50 flasks (Opti-MEM™ I Reduced Serum Medium, no phenol red (Life Technologies, 11058-021), 1 mM Na pyruvate (Life Technologies, 11360039), 1% MEM NEAA (Life Technologies, 11140-035), and 1% Penicillin/Streptomycin (Life Technologies, 15140-122)) then seeded into 96-well TPP plates (150 000 cell/well) and incubated with test compounds (Final Concentration [nM] 10000-0.05) for 30 minutes at 37° C. […] Stimulation was terminated by addition of lysis buffer (MSD K150SVD) and pSTAT3 detection was measured with Phospho-STAT3 (Tyr705) Kit MSD K150SVD)) according to manufacturer's instruction. Briefly, cell lysates were added to pre-blocked plates, sealed, and shake for 1 hour at room temperature. Plates were then washed and incubated with detection antibody for 1 hour at room temperature. After washing, Read Buffer was added, and plates were read on MSD instrument (Model 1300 MSD Quickplex SQ 120).

T1 sequence (P29597 589-875 limits assumed): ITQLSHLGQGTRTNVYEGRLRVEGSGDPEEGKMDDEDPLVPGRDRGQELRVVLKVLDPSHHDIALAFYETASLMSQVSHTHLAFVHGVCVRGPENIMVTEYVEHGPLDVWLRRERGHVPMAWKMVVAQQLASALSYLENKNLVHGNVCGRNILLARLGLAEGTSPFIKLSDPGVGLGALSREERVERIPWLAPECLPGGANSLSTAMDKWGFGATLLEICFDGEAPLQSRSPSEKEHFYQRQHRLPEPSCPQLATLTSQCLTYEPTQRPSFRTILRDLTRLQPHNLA

As for `Cc1cc(Nc2cc(Nc3ncccc3S(C)(=O)=O)ncn2)ncc1NC1(C)COC1` [Compound 23, N^4-(4-methyl-5-((3-methyloxetan-3-yl)amino)103yridine-2-yl)-N^6-(3-(methylsulfonyl)103yridine-2-yl)pyrimidine-4,6-diamine], the “Ligand Efficiency” value on TYK2-JH2 is given as “††† (†††: >0.39)”. The IC50 with IL-12/pSTAT4 was under 100 nM; in the assay on GM-CSF/pSTAT5, over 10 µM; in the assay on IL-6/pSTAT3, over 10 µM.
For the molecule `C[C@H](c1ccc(Nc2cc(Nc3ncccc3S(C)(=O)=O)ncn2)nc1)N1CC2(COC2)C1` [Compound 17, I—N^4-(5-(1-(2-oxa-6-azaspiro[3.3]heptan-6-yl)ethyl) 73yridine-2-yl)-N^6-(3-(methylsulfonyl)73yridine-2-yl)pyrimidine-4,6-diamine], at TYK2-JH2, the “Ligand Efficiency” value is “†† (††: 0.37-0.39)”. For the same molecule, the IC50 in the assay with IL-12/pSTAT4 was under 100 nM; with IL-6/pSTAT3, over 10 µM. In addition, the “Cellular selectivity (GM-CSF induced pSTAT5)” value with GM-CSF/pSTAT5 was “††††”.
As for `C[C@@H](c1ccc(Nc2cc(Nc3ncccc3S(C)(=O)=O)ncn2)nc1C(F)(F)F)N1CC2(COC2)C1` [Compound 11, I-N^4-(5-(1-(2-oxa-6-azaspiro[3.3]heptan-6-yl)ethyl)-6-(trifluoromethyl)90yridine-2-yl)-N^6-(3-(methylsulfonyl)90yridine-2-yl)pyrimidine-4,6-diamine], the “Ligand Efficiency” value on TYK2-JH2 is on record as “†† (††: 0.37-0.39)”. Moreover, the results for the IC50 with IL-12/pSTAT4, with GM-CSF/pSTAT5 and with IL-6/pSTAT3 were under 100 nM, over 10 µM and under 4 µM, respectively.
For `Cc1cccc(Nc2cc(Nc3ccccc3NS(C)(=O)=O)ncn2)n1` [Compound 53, N-(2-(6-(6-methylpyridin-2-ylamino)pyrimidin-4-ylamino)phenyl) methanesulfonamide] the same measures were “††† (†††: >0.39)”, 100 to 1000 nM, 4 to 10 µM and under 4 µM.
For `CS(=O)(=O)c1cccnc1Nc1cc(Nc2ccc3c(n2)CCC[C@@H]3N2CC3(COC3)C2)ncn1` [Compound 5, I-N^4-(5-(2-oxa-6-azaspiro[3.3]heptan-6-yl)-5,6,7,8-tetrahydroquinolin-2-yl)-N^6-(3-(methylsulfonyl)81yridine-2-yl)pyrimidine-4,6-diamine] the same measures were “†† (††: 0.37-0.39)”, under 100 nM, over 10 µM and 4 to 10 µM.
As for `CC(c1ccc(Nc2cc(Nc3ncccc3S(C)(=O)=O)ncn2)nc1)N1CC2(CC(C(F)F)C2)C1` (stereo not shown) [Compound 34, N^4-(5-(1-(6-(difluoromethyl)-2-azaspiro[3.3]heptan-2-yl)ethyl) 120yridine-2-yl)-N^6-(3-(methylsulfonyl)120yridine-2-yl)pyrimidine-4,6-diamine], the “Ligand Efficiency” value at TYK2-JH2 is on record as “†† (††: 0.37-0.39)”. Further, in the assay on IL-12/pSTAT4, the IC50 was under 100 nM.
The matching figures for `Cc1cccc(Nc2cc(Nc3cnccc3C(N)=O)ncn2)n1` [Compound 61, 3-((6-((6-methylpyridin-2-yl)amino)pyrimidin-4-yl)amino) isonicotinamide]: “††† (†††: >0.39)” and 100 to 1000 nM.
For `C[C@@H](c1ccc(Nc2cc(Nc3ncccc3S(C)(=O)=O)ncn2)nc1)N1CC2(CCOCC2)C1` [Compound 31, I-N^4-(5-(1-(7-oxa-2-azaspiro[3.5]nonan-2-yl)ethyl)pyridine-2-yl)-N^6-(3-(methylsulfonyl)114yridine-2-yl)pyrimidine-4,6-diamine] the same measures were “†† (††: 0.37-0.39)” and under 100 nM.
The matching figures for `COc1ccnc(Nc2cc(Nc3ccc(C(C)N4CC5(COC5)C4)cn3)ncn2)c1S(C)(=O)=O` (stereo not shown) [Compound 76, N^4-(5-(1-(2-oxa-6-azaspiro[3.3]heptan-6-yl)ethyl)170yridine-2-yl)-N^6-(4-methoxy-3-(methylsulfonyl)170yridine-2-yl)pyrimidine-4,6-diamine]: “† (†: <0.37)” and 100 to 1000 nM.
For `CS(=O)(=O)c1ccccc1Nc1cc(NC(=O)C2CC2)ncn1` [Compound 69, N^4-(cyclopropylcarbonyl)-N^6-(2-(methylsulfonyl)phenyl)pyrimidine-4,6-diamine], the “Ligand Efficiency” value on TYK2-JH2 is reported as “††† (†††: >0.39)”. Moreover, the IC50 in the assay on IL-12/pSTAT4 was over 1000 nM.
For `Cc1cccnc1Nc1cc(Nc2ccccc2C(N)=O)ncn1` [Compound 68, 2-((6-((3-methylpyridin-2-yl)amino)pyrimidin-4-yl)amino) benzamide] the same measures were “††† (†††: >0.39)” and over 1000 nM.
For `CC(c1ccc(Nc2cc(Nc3ncc(C4COC4)cc3S(C)(=O)=O)ncn2)nc1)N1CC2(COC2)C1` (stereo not shown) [Compound 78, N^4-(5-(1-(2-oxa-6-azaspiro[3.3]heptan-6-yl)ethyl)175yridine-2-yl)-N^6-(3-(methylsulfonyl)-5-(oxetan-3-yl)175yridine-2-yl)pyrimidine-4,6-diamine] the same measures were “† (†: <0.37)” and over 1000 nM.
